Literature values, collected in patent US7025979B2, “Male contraceptive formulation comprising norethisterone” (Schering AG, priority 2000, dated 2006).

What was measured:
[1] = in higher doses; literature (Merrigiola et al, Bebb et al)
spermatogenesis = conditions: use of the progestin; literature (Merrigiola et al, Bebb et al)

Row | SMILES | red blood cell count [1] | suppression of spermatogenesis (spermatogenesis)
1 | CC(=O)O[C@]1(C(C)=O)CC[C@H]2[C@@H]3C=C(Cl)C4=CC(=O)[C@@H]5C[C@@H]5[C@]4(C)[C@H]3CC[C@@]21C [cyproterone acetate] | significant decreases in red blood cell count | ineffective in the suppression of spermatogenesis
2 | C#C[C@]1(O)CC[C@H]2[C@@H]3CCC4=CC(=O)CC[C@@H]4[C@H]3CC[C@@]21CC [levonorgestrel] | significant decreases in red blood cell count | –
